Where two headings read alike, the source gives them in different places.
Molecular target: recombinant human CL receptor/RAMP1 (Homo sapiens (Human), UniProt O60894+Q16602)
Assay: Human CGRP receptor binding (recombinant receptor binding assay, 125I-hCGRP)
Description: RECOMBINANT RECEPTOR: Human CL receptor (Genbank accession number L76380) was subcloned into the expression vector pIREShyg2 (BD Biosciences Clontech) as a 5′NheI and 3′ PmeI fragment. Human RAMP1 (Genbank accession number AJ001014) was subcloned into the expression vector pIRESpuro2 (BD Biosciences Clontech) as a 5′NheI and 3′NotI fragment. HEK 293 cells (human embryonic kidney cells; ATCC #CRL-1573) were cultured in DMEM with 4.5 g/L glucose, 1 mM sodium pyruvate and 2 mM glutamine supplemented with 10% fetal bovine serum (FBS), 100 units/mL penicillin and 100 μg/mL streptomycin, and maintained at 37° C. and 95% humidity. Cells were subcultured by treatment with 0.25% trypsin with 0.1% EDTA in HBSS. Stable cell line generation was accomplished by co-transfecting 10 μg of DNA with 30 μg Lipofectamine 2000 (Invitrogen) in 75 cm^2 flasks. CL receptor and RAMP1 expression constructs were co-transfected in equal amounts. Twenty-four hours after transfection the cells were diluted and selective medium (growth medium+300 μg/mL hygromycin and 1 μg/mL puromycin) was added the following day. A clonal cell line was generated by single cell deposition utilizing a FACS Vantage SE (Becton Dickinson). Growth medium was adjusted to 150 μg/mL hygromycin and 0.5 μg/mL puromycin for cell propagation.
The cell suspension was disrupted with a laboratory homogenizer and centrifuged at 48,000 g to isolate membranes. The pellets were resuspended in harvest buffer plus 250 mM sucrose and stored at −70° C. For binding assays, 20 μg of membranes were incubated in 1 ml binding buffer (10 mM HEPES, pH 7.4, 5 mM MgCl2, and 0.2% BSA) for 3 hours at room temperature containing 10 pM ^125I-hCGRP (GE Healthcare) and antagonist. The assay was terminated by filtration through 96-well GFB glass fiber filter plates (PerkinElmer) that had been blocked with 0.05% polyethyleneimine. The filters were washed 3 times with ice-cold assay buffer (10 mM HEPES, pH 7.4 and 5 mM MgCl2). Scintillation fluid was added and the plates were counted on a Topcount (Packard). Non-specific binding was determined and the data analysis was carried out with the apparent dissociation constant (Ki) determined by using a non-linear least squares fitting the bound CPM data to the equation below: […]

[1] = read-out: Human CGRP receptor binding Ki

Sequence of recombinant human CL receptor/RAMP1 (Q16602 23-461): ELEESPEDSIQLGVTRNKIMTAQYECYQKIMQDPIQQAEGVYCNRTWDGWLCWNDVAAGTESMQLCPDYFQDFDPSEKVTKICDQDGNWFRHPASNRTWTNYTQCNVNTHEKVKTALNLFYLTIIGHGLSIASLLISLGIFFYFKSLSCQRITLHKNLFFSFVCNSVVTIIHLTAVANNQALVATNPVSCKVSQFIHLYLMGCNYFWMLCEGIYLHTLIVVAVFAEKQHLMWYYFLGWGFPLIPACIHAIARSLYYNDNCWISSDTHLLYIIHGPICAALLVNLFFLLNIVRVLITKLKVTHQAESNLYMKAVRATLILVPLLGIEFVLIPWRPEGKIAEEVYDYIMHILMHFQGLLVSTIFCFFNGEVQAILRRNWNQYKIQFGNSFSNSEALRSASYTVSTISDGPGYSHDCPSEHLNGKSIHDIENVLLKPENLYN
Sequence of recombinant human CL receptor/RAMP1 (O60894 27-148): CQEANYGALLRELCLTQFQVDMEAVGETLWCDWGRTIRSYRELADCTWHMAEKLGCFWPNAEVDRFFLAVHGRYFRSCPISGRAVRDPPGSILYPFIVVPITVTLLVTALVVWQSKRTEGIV

| SMILES | Ki [1] [nM] | Ki (read-out: Ki) [nM] |
| --- | --- | --- |
| CC(C)(C)C(=O)N(CC#Cc1ccc2c(c1)CC1(C2)C(=O)Nc2ncccc21)Cc1ccccc1 (centres unmarked) [Example 1, N-Benzyl-2,2-dimethyl-N-[3-(2′-oxo-1,1′,2′,3-tetrahydrospiro[indene-2,3′-pyrrolo[2,3-b]pyridin]-5-yl)prop-2-yn-1-yl]propanamide] | 20 |  |
| CC(C)(C)C(=O)N(CCCc1ccc2c(c1)CC1(C2)C(=O)Nc2ncccc21)Cc1ccccc1 (centres unmarked) [Example 2, N-benzyl-2,2-dimethyl-N-[3-(2′-oxo-1,1′,2′,3-tetrahydrospiro[indene-2,3′-pyrrolo[2,3-b]pyridin]-5-yl)propyl]propanamide] | 45 |  |
| CC(C)(CF)C(=O)N(C/C=C/c1cnc2c(c1)C[C@@]1(C2)C(=O)Nc2ncccc21)[C@@H]1CCc2ccccc21 [Example 3, N-[(1R)-2,3-dihydro-1H-inden-1-yl]-3-fluoro-2,2-dimethyl-N-{(2E)-3-[(6S)-2′-oxo-1′,2′,5,7-tetrahydrospiro[cyclopenta[b]pyridine-6,3′-pyrrolo[2,3-b]pyridin]-3-yl]prop-2-en-1-yl}propanamide] | 0.06 |  |
| C[C@H](c1cc(F)cc(F)c1)N(C/C=C/c1cnc2c(c1)C[C@@]1(C2)C(=O)Nc2ncccc21)C(=O)C(C)(C)CCl [Example 6] |  | 0.065 |
| C[C@H](c1cc(F)cc(F)c1)N(C/C=C/c1cnc2c(c1)C[C@@]1(C2)C(=O)Nc2ncccc21)C(=O)C(C)(C)CF [Example 7] |  | 0.041 |

Now from value to molecule:

| Ki [1] [nM] | Ki (read-out: Ki) [nM] | SMILES |
| --- | --- | --- |
|  | 0.43 | C[C@H](c1cc(F)cc(F)c1)N(C/C=C/c1ccc2c(c1)C[C@@]1(C2)C(=O)NC(=O)N1C)C(=O)C(C)(C)C [Example 8] |
|  | 0.05 | C[C@H](c1cc(F)cc(F)c1)N(C/C=C/c1cnc2c(c1)C[C@@]1(C2)C(=O)Nc2ncccc21)C(=O)C1(C(F)(F)F)CC1 [Example 11] |
|  | 0.13 | Cc1ccc([C@@H](C)N(C/C=C/c2cnc3c(c2)C[C@@]2(C3)C(=O)Nc3ncccc32)C(=O)C(C)(C)C)cc1F [Example 13] |
